Test results taken from patent publication US20020177621A1, “Antifungal fragrance composition” (priority 2000, published 2002).
“And” between values parts separate entries of the source, which are not always exact repeats. Equal values may be shown once. “Also recorded” adds a separate entry of the source.

Legend:
Format in all cases: cell-based
[1] = tested on: Aspergillus niger IFO 9455 (An-1); test: Fragrant vapor antifungal activity (impregnated paper disc on cover of inverted agar plate); settings: 72 hours at 27° C.; for IZ: Diameter of growth inhibition zone: 20 μl fragrance (or 40 μl of 50% ethanol solution) on disc, >85 = growth inhibited over entire plate; for Growth: Growth status outside the inhibition zone / SI: Diameter of spore formation inhibition zone: 20 μl fragrance on disc; for Growth: Growth status outside the inhibition zone: compared with control
Description: (§1) Physiological saline containing 0.05% Tween-80 was added to a slant on which the test organism grew well, and a spore suspension was produced at 1×10^6 CFU (Colony Forming Units)/ml in accordance with ordinary methods. Potato dextrose agar (PDA: Nissui Pharmaceutical) was used for the medium. To begin with, 10 ml of sterile PDA was pipetted into a Petri dish and after it solidified, another 6 ml of PDA containing 1% of the above described spore suspension was overlaid and solidified to prepare the test agar plate. For the fragrance sample, if the sample is in the form of liquid at ordinary temperatures, 20 μl of liquid was directly impregnated into a paper disc (Advantech, diameter: 8 mm, thick material), while a 50% by weight ethanol solution was prepared for crystals or powder, and 40 μl of that solution was then impregnated into the paper disc.
(§2) The test agar plate was placed inversely, and the paper disc impregnated with the fragrance sample was placed in the center of the cover of the agar plate, followed by incubating for 72 hours at 27° C. Evaluation was made based on the diameter (mm) of the mold growth inhibition zone. When mold growth was inhibited over the entire surface of the agar plate, the diameter of the growth inhibition zone was reported as >85 mm. At locations where mold grew outside the inhibition zone, the diameter of the spore formation inhibition zone and the degree of growth were recorded by comparing with a control. The molds used in the test are shown in Table 1, wherein these molds consist of mold species that are isolated at high frequencies from rooms and bath rooms.
(§3) The amount of blended fragrance added to the paper discs was 20 μl each, and only the diameter of the inhibition zone (mm) is indicated for the results.

[2] = tested on: Aureobasidium pullulans IFO 6353 (Ap-1); test: as above; settings: 72 hours at 27° C.; for IZ: Diameter of growth inhibition zone: 20 μl fragrance (or 40 μl of 50% ethanol solution) on disc, >85 = growth inhibited over entire plate; for Growth: Growth status outside the inhibition zone: compared with control
Description: as §1, §2, §3

[3] = tested on: Cladosporium cladosporioides IFO 6348 (Cc-1); test: as above; settings: 72 hours at 27° C.; for IZ: Diameter of growth inhibition zone: 20 μl fragrance (or 40 μl of 50% ethanol solution) on disc, >85 = growth inhibited over entire plate; for Growth: Growth status outside the inhibition zone: 20 μl fragrance on disc, compared with control
Description: as §1, §2, §3

An-1 (Aspergillus niger) = test: Confirmation of synergistic action of two fragrances (vapor, paper disc); settings: for Additive effect: second fragrance that shows additive action with the fragrance component / Synergistic effect: second fragrance that shows synergistic action with the fragrance component / Antagonistic effect: second fragrance that shows antagonistic action with the fragrance component: value = combination partner; for Additive effect: second fragrance that shows additive action with the fragrance component: combined IZ intermediate; for IZ (diameter of growth inhibition zone) / Growth (growth status outside the inhibition zone) / SI (diameter of spore formation inhibition zone): 72 hours at 27° C.; for IZ (diameter of growth inhibition zone): sample amount on disc: citral 2 μl, benzaldehyde 10 μl, dimethyl tetrahydrobenzaldehyde 20 μl, geraniol 10 μl, octyl aldehyde 20 μl, 9-decen-1-ol 0.5 μl, trans-2-undecenal 3 μl, phenylacetaldehyde 5 μl, A + B = both amounts on one disc; for Growth (growth status outside the inhibition zone): sample amounts as in Table 3 (citral 2 μl, benzaldehyde 10 μl, dimethyl tetrahydrobenzaldehyde 20 μl, geraniol 10 μl, octyl aldehyde 20 μl, 9-decen-1-ol 0.5 μl, trans-2-undecenal 3 μl, phenylacetaldehyde 5 μl; A + B = both); for SI (diameter of spore formation inhibition zone): sample amounts as in Table 3 (citral 2 μl, benzaldehyde 10 μl, dimethyl tetrahydrobenzaldehyde 20 μl, geraniol 10 μl, octyl aldehyde 20 μl, trans-2-undecenal 3 μl, phenylacetaldehyde 5 μl; A + B = both); for Synergistic effect: second fragrance that shows synergistic action with the fragrance component: combined IZ 20 mm or more larger than sum of single IZ; for Antagonistic effect: second fragrance that shows antagonistic action with the fragrance component: combined IZ 20 mm or more smaller than sum of single IZ
Description: An agar plate prepared according to the method of Example 1 was used while using An-1 (Aspergillus niger) for the test fungi. […] 10 μl of the ethanol containing the Table 3 prescribed amount of the fragrance was impregnated into a paper disc. The test agar plate was placed inversely, and the paper disc impregnated with each fragrance alone and a paper disc simultaneously impregnated with two types of fragrances were placed in the center of the cover, followed by incubating for 72 hours at 27° C. and measuring the diameters of the resulting growth inhibition zones.
The results obtained as in Example 2 with other combinations are shown in Tables 4 through 7 as combination examples of respective synergistic, additive and antagonistic actions for each fragrant chemical product (a). […] It should be noted that in order to make the table smaller, combinations that have already been listed once are not listed in other columns of the tables.

Structure (SMILES)	IZ: Diameter of growth inhibition zone [1] [mm]	Growth: Growth status outside the inhibition zone [1]	IZ: Diameter of growth inhibition zone [2] [mm]	Growth: Growth status outside the inhibition zone ([2]; 20 μl fragrance on disc)	IZ: Diameter of growth inhibition zone [3] [mm]	Growth: Growth status outside the inhibition zone [3]	Additive effect: second fragrance that shows additive action with the fragrance component (An-1 (Aspergillus niger))	IZ (diameter of growth inhibition zone) (An-1 (Aspergillus niger)) [mm]	Growth (growth status outside the inhibition zone) (An-1 (Aspergillus niger))	SI (diameter of spore formation inhibition zone) (An-1 (Aspergillus niger)) [mm]	SI: Diameter of spore formation inhibition zone [1] [mm]	Synergistic effect: second fragrance that shows synergistic action with the fragrance component (An-1 (Aspergillus niger))	Antagonistic effect: second fragrance that shows antagonistic action with the fragrance component (An-1 (Aspergillus niger))	SI: Diameter of spore formation inhibition zone ([2]; 20 μl fragrance on disc) [mm]
C=CCCCCCCCCC=O [10-undecen-1-al]	>85	none	>85	sparse	>85	sparse	Furfural,; also recorded: Geraniol	–	–	–	–	–	–	–
O=Cc1ccccc1 [Benzaldehyde]	>85	none	>85	none	>85	none	–	15	slight	>85	–	–	–	–
CC(C)=CCCC(C)CCO (stereo not drawn) [Citronellol]	35	good	35	weak	35	weak	1-Nonanal, and 1-Decanol, and Anisaldehyde	–	–	–	55	Citral DMA,; also recorded: Citral DEA,	Thymol and 9-Decen-1-ol	–
CC(C)=CCC/C(C)=C/CO [Geraniol]	45	good	30	good	70	weak	Thymol,	30	weak	45	65	1-Nonanal	Citronellol,; also recorded: Eugenol	45
CCC/C=C/C=O [Trans-2-hexenal]	>85	none	>85	none	>85	none	Citral DMA, and 1-Nonanal, and 9-Decen-1-ol	–	–	–	–	–	–	–
CCCCCCCC/C=C/C=O [Trans-2-undecenal]	>85	none	>85	none	>85	none	–	30	slight	>85	–	Citral DMA; also recorded: Citral DEA; also recorded: Cumin aldehyde; also recorded: Geraniol; also recorded: Citronellol	Eugenol	–
O=CCCc1ccccc1 [3-Phenylpropanal]	>85	none	>85	none	>85	none	–	–	–	–	–	Citral DMA; also recorded: Citral DEA; also recorded: Citronellal; also recorded: Salicylic aldehyde,	Geraniol	–
O=Cc1ccco1 [Furfural]	>85	none	>85	none	>85	none	–	–	–	–	–	Citronellal; also recorded: hexenal, Octyl aldehyde,; also recorded: Trans-2-undecenal,; also recorded: Cumin aldehyde,; also recorded: Geraniol; also recorded: Citronellol; also recorded: Thymol	–	–
CC(C)=CCCC(C)=CC=O [Citral]	>85	none	>85	none	>85	none	–	0	weak	20	–	–	–	–
CC(C)=CCCC(C)CC=O (stereo not drawn) [Citronellal]	15	weak	>85	sparse	>85	sparse	Thymol, and 1-Decanol, and Citronellol	–	–	–	–	–	–	–
CCCCCCCCCCO [Example 1-Decanol, 1-Decanol]	80	weak	40	slight	60	weak	Thymol and 1-Nonanal and Methyl salicylate, and Phenylacetaldehyde, and Eugenol	–	–	–	–	–	–	–
